Converted amounts (≈) assume the structure as drawn.
What was measured:
[1] = Unbound brain-to-plasma concentration ratio in C57BL6 mouse plasma at 10 mg/kg, po measured up to 24 hrs; format: ADME, organism-based; settings: brain and plasma, read-out: K(p,uu,brain)
[2] = AUC (0 to infinity) in C57BL6 mouse plasma at 10 mg/kg, po measured up to 24 hrs; format: ADME, organism-based; parameters: route oral, dose 10 mg/kg, time <=24
physchem [3] = settings: buffer
in vitro [4] = settings: dog, MDCK-MDR1
[5] = AUC (0 to infinity) in C57BL6 mouse brain at 10 mg/kg, po measured up to 24 hrs; format: ADME, organism-based; parameters: route oral, dose 10 mg/kg, time <=24; settings: in vivo
[6] = AUC (0 to t) in C57BL6 mouse plasma at 10 mg/kg, po measured up to 24 hrs; format: ADME, organism-based; parameters: route oral, dose 10 mg/kg, time <=24
physchem [7] = settings: buffer, pH 7.4
[8] = Tmax in C57BL6 mouse plasma at 10 mg/kg, po measured up to 24 hrs; format: ADME, organism-based
[9] = Tmax in C57BL6 mouse brain at 10 mg/kg, po measured up to 24 hrs; format: ADME, organism-based
[10] = Half life in C57BL6 mouse plasma at 10 mg/kg, po measured up to 24 hrs; format: ADME, organism-based
[11] = AUC (0 to t) in C57BL6 mouse brain at 10 mg/kg, po measured up to 24 hrs; format: ADME, organism-based; settings: in vivo
in vitro [12] = settings: dog, MDCK-MDR1; remark: listed apart in the source
[13] = Cmax in C57BL6 mouse brain at 10 mg/kg, po measured up to 24 hrs; format: ADME, organism-based; parameters: route oral, dose 10 mg/kg, time <=24
[14] = Half life in C57BL6 mouse brain at 10 mg/kg, po measured up to 24 hrs; format: ADME, organism-based
[15] = Cmax in C57BL6 mouse plasma at 10 mg/kg, po measured up to 24 hrs; format: ADME, organism-based; parameters: route oral, dose 10 mg/kg, time <=24

| Compound | Kp uu at 24 h [1] | AUC(0-inf) [2] [ng·h/mL] | solubility (physchem [3]) [µM] | Papp B→A (in vitro [4]) [×10⁻⁶ cm/s] | AUC [5] [ng·h/g] | AUC(0-t) at 24 h [6] [ng·h/mL] | logD (physchem [7]) | Tmax [8] [h] | Tmax [9] [h] | half-life [10] [h] | AUCt [11] [ng·h/g] | Papp A→B (in vitro [12]) [×10⁻⁶ cm/s] | Cmax [13] [ng/g] | half-life [14] [h] | Cmax [15] [ng/mL] |
| --- | --- | --- | --- | --- | --- | --- | --- | --- | --- | --- | --- | --- | --- | --- | --- |
| Oc1nnc(-c2ccc(Cl)c(C(F)(F)F)c2)o1 | 0.025 | 63100 | 710 (≈ 188 µg/mL) | 55 | 9910 | 50400 | 2.6 | 0.5 | 0.17 | 3.7 | 8870 | 34 | 2990 | 2.3 | 16600 |
| Oc1nnc(-c2ccc(Cl)c(C(F)(F)F)c2)s1 | – | – | 22 (≈ 6.17 µg/mL) | 70 | – | – | – | – | – | – | – | 45 | – | – | – |

From ChEMBL document CHEMBL4699601, “5-Phenyl-1,3,4-oxadiazol-2(3H)-ones Are Potent Inhibitors of Notum Carboxylesterase Activity Identified by the Optimization of a Crystallographic Fragment Screening Hit” (J Med Chem, 2020)
